# Values of other authors as cited in patent publication US20230390267A1, “TREATMENT REGIMENS FOR EARLY IDIOPATHIC PARKINSON'S DISEASE” (BIAL - PORTELA & CA., S.A., priority 2020, published 2023).
# Read-outs that look alike come from different tables or passages of the source.
# Legend:
# [1] = tested on: patients suffering from early idiopathic Parkinson's disease; settings: addition of entacapone to levodopa/DDCI in early PD; cited from earlier work
# [2] = cited from earlier work
# 'stable' PD patients = settings: 6 months, cited from earlier work
# [3] = tolcapone 100 mg three times daily
# [4] = tolcapone 200 mg three times daily
compound,measurement,setting,value
CCN(CC)C(=O)/C(C#N)=C/c1cc(O)c(O)c([N+](=O)[O-])c1 [entacapone],onset of motor complications and frequency of dyskinesia,[1],shorter time to onset of motor complications and increased frequency of dyskinesia
N[C@@H](Cc1ccc(O)c(O)c1)C(=O)O [levodopa],plasma half-life of levodopa,[2]; oral levodopa combined with carbidopa,1.5 h
same,half-life of oral levodopa,[2]; when administered with DDCIs,1 to 1.5 h
same,extent of brain penetration of levodopa,[2]; when combined with a DDCI,10%
Cc1ccc(C(=O)c2cc(O)c(O)c([N+](=O)[O-])c2)cc1 [tolcapone],reduction in UPDRS Part II activities of daily living (ADL) score,'stable' PD patients; [3],−1.4 points
same,reduction in UPDRS motor score,'stable' PD patients; [3],−2.0 points
same,reduction in UPDRS Part II activities of daily living (ADL) score,'stable' PD patients; [4],−1.6 points
same,reduction in UPDRS motor score,'stable' PD patients; [4],−2.3 points
